Measured values published in article PMC4183595, “Study on the Main Components Interaction from Flos Lonicerae and Fructus Forsythiae and Their Dissolution In Vitro and Intestinal Absorption in Rats” (PLoS ONE, 2014).
Read-outs that look alike come from different tables or passages of the source.

Key:
[1] = Rat in vivo pharmacokinetics study after oral administration of product A, B or C; set-up: species or system Male Sprague-Dawley (SD) rats; AUC 0→t in product C group, increased to % compared to that in product A or B groups: concentration or dose not given beside the values; settings: for AUC(0-inf) / MRT / Tmax / half-life / Cmax / AUC(0-t): male, Sprague-Dawley, rat, plasma; for AUC(0-inf) / MRT / Tmax / half-life / Cmax: po, 10 mL·kg^−1, rats; for AUC(0-inf) / MRT / Tmax / half-life / AUC(0-t): 10 mL·kg^−1; for half-life: read-out: T 1/2z; for Cmax: mean±SD; for AUC 0→t in product C group compared with product A or B group / AUC(0-t) / AUC 0→t in product C group, increased to % compared to that in product A or B groups / bioavailability in product C group compared with that in product A group / bioavailability in product C group compared with that in product B group: rats; for AUC 0→t in product C group compared with product A or B group / AUC 0→t in product C group, increased to % compared to that in product A or B groups / bioavailability in product C group compared with that in product A group / bioavailability in product C group compared with that in product B group: oral; for AUC 0→t in product C group compared with product A or B group: same dosages administrated; for AUC(0-t): oral product C group; for AUC 0→t in product C group, increased to % compared to that in product A or B groups: product C versus product A or B
Description: Product A (extract mixed with FLJ extract and water, (1∶1, v / v )), product B (extract mixed with FF extract and water, (1∶1, v / v )) and product C (extract mixed with FLJ and FF extracts, (1∶1, v / v )) were given to oral administration to rats, respectively.
Male SD rats (∼250 g) were kept in an environmentally controlled breeding room (temperature: 20±2°C, relative humidity: 60±5%) for 1 week. […] The rats were randomly divided into three groups with no less than six rats in each group to receive various administrations at a single oral dose (10 mL·kg^−1) by gastric gavage. […] Subsequently, plasma was prepared by centrifugation at 1,816×g, 4°C for 7 min, and immediately analyzed or stored at −70°C for further analysis.
The main pharmacokinetic parameters including the peak plasma concentration (C max), the time to C max (T max), the AUC from 0 to infinity (AUC 0–∞), the AUC form 0 to time (AUC 0–t), mean residence time (MRT), and terminal elimination half-life (T 1/2z) were calculated by the non-compartmental analysis of plasma concentration vs. time data using the “DAS 2.1.1” software (Mathematical Pharmacology Professional Committee of China, Shanghai, China).

Caco-2 cells = assay: In vitro Caco-2 monolayer model, apical to basolateral transport (P app); type: in vitro ADME, human; settings: for P app in product C group, % compared with that in product B group / P app in product C group, % compared to that in product A group: Caco-2 monolayer, HBSS pH 6.0, apical to basolateral; for absorption into Caco-2 cells: dipsacoside B, macranthoidin B in product C or A group, arctiin in product C or B group
Description: Caco-2 cells were cultured in high glucose DMEM with 10% fetal bovine serum, 1% nonessential amino acids. Cells were cultured in a humidified atmosphere of 5% CO2 at 37°C. After reaching 80% confluens, Caco-2 cells were harvested with 0.05% trypsin-EDTA solution and seeded on top of CC inserts in 6-well plates, which has a surface area of 4.2 cm^2, at a density of 1.0×10^5 cells/cm^2. The protocols for cell culture in Transwell inserts were similar to those described previously.
Hank’s balanced salt solution (HBSS) was used as the transport buffer for the transport study in Caco-2 cells monolayer model. It was prepared by dissolving 9.5 grams of commercial available HBSS powder in 1000 mL water.
Cell culture experiments were described previously. Briefly, after culture medium was aspirated, the cell monolayers were washed three times with blank HBSS. […] The monolayers were incubated with the blank HBSS for 1 h with 37°C. Thereafter the incubation medium was aspirated. Afterwards, a solution containing the compound was loaded onto the apical side. The amounts of transported compound were measured as a function of time. […] The samples were taken at 0, 1, 2, 3 and 4 h after incubation. At the end of the transport experiment, integrity of the monolayer was monitored by TEER value.

[2] = single oral dose 10 mL·kg^−1 of product B (FF extract and water 1:1)
[3] = single oral dose 10 mL·kg^−1 of product C (FLJ and FF extracts 1:1)
[4] = single oral dose 10 mL·kg^−1 of product A (FLJ extract and water 1:1)

Structure (SMILES): COc1cc(C[C@H]2C(=O)OC[C@@H]2Cc2ccc(OC)c(OC)c2)ccc1O [Arctigenin]
- AUC(0-inf) ([1]; oral product B): 4.44 ng·h/mL
- MRT ([1]; oral product B): 9.33 h
- Tmax ([1]; oral product B): 0.333 h
- half-life ([1]; oral product B): 10.4 ± 0.36 h
- AUC(0-inf) ([1]; oral product C): 3.99 ng·h/mL
- MRT ([1]; oral product C): 9.4 h
- Tmax ([1]; oral product C): 0.333 h
- half-life ([1]; oral product C): 8.9 ± 0.898 h
- Cmax [1, 2]: 0.895 ± 0.166 ng/mL
- Cmax [1, 3]: 0.231 ± 0.144 ng/mL
- AUC 0→t in product C group compared with product A or B group [1]: lower significantly
- P app in product C group, % compared with that in product B group (Caco-2 cells): 110%

Structure (SMILES): O=c1c(O[C@@H]2O[C@H](CO)[C@@H](O)[C@H](O)[C@H]2O)c(-c2ccc(O)cc2)oc2cc(O)cc(O)c12 [Astragalin]
- AUC(0-t) [1]: 4.17 ng·h/mL
- AUC(0-inf) ([1]; oral product A): 4.32 ng·h/mL
- MRT ([1]; oral product A): 8.15 h
- Tmax ([1]; oral product A): 0.167 h
- half-life ([1]; oral product A): 7.67 ± 0.263 h
- AUC(0-inf) ([1]; oral product C): 6.26 ng·h/mL
- MRT ([1]; oral product C): 11.3 h
- Tmax ([1]; oral product C): 0.167 h
- half-life ([1]; oral product C): 11.6 ± 1.72 h
- Cmax [1, 4]: 0.441 ± 0.166 ng/mL
- Cmax [1, 3]: 0.551 ± 0.207 ng/mL
- AUC 0→t in product C group, increased to % compared to that in product A or B groups [1]: 145%
- P app in product C group, % compared to that in product A group (Caco-2 cells): 131%

Structure (SMILES): O=C(O)/C=C/c1ccc(O)c(O)c1 [Caffeic acid]
- AUC(0-inf) ([1]; oral product A): 1190 ng·h/mL
- MRT ([1]; oral product A): 6.65 h
- Tmax ([1]; oral product A): 0.167 h
- half-life ([1]; oral product A): 6 ± 1.1 h
- AUC(0-inf) ([1]; oral product B): 683 ng·h/mL
- MRT ([1]; oral product B): 5.57 h
- Tmax ([1]; oral product B): 0.167 h
- half-life ([1]; oral product B): 5.53 ± 0.893 h
- AUC(0-inf) ([1]; oral product C): 737 ng·h/mL
- MRT ([1]; oral product C): 6.28 h
- Tmax ([1]; oral product C): 0.167 h
- half-life ([1]; oral product C): 6.53 ± 1.02 h
- Cmax [1, 4]: 181 ± 17.6 ng/mL
- Cmax [1, 2]: 91.1 ± 6.74 ng/mL
- Cmax [1, 3]: 98.1 ± 16.2 ng/mL
- bioavailability in product C group compared with that in product A group [1]: significantly lower
- bioavailability in product C group compared with that in product B group [1]: no significant difference
- P app in product C group, % compared to that in product A group (Caco-2 cells): 275%
- P app in product C group, % compared with that in product B group (Caco-2 cells): 247%

Structure (SMILES): O=c1c(-c2ccc(O)cc2)coc2cc(O)cc(O)c12 [Genistein]
- AUC(0-inf) ([1]; oral product A): 240 ng·h/mL
- MRT ([1]; oral product A): 10.8 h
- Tmax ([1]; oral product A): 0.233 h
- half-life ([1]; oral product A): 10 ± 1.27 h
- AUC(0-inf) ([1]; oral product C): 28.6 ng·h/mL
- MRT ([1]; oral product C): 7.72 h
- Tmax ([1]; oral product C): 0.25 h
- half-life ([1]; oral product C): 6.85 ± 1.13 h
- Cmax [1, 4]: 5.09 ± 2.46 ng/mL
- Cmax [1, 3]: 2.3 ± 1 ng/mL
- AUC 0→t in product C group compared with product A or B group [1]: lower significantly
- P app in product C group, % compared to that in product A group (Caco-2 cells): 293%

Structure (SMILES): O=c1c(-c2ccc(O)cc2)coc2cc(O[C@@H]3O[C@H](CO)[C@@H](O)[C@H](O)[C@H]3O)cc(O)c12 [Genistin]
- AUC(0-t) [1]: 0.548 ng·h/mL
- AUC(0-inf) ([1]; oral product A): 0.63 ng·h/mL
- Tmax ([1]; oral product A): 0.267 h
- half-life ([1]; oral product A): 8.03 ± 0.305 h
- AUC(0-inf) ([1]; oral product C): 0.822 ng·h/mL
- Tmax ([1]; oral product C): 0.333 h
- half-life ([1]; oral product C): 9.2 ± 0.455 h
- Cmax [1, 4]: 0.055 ± 0.0154 ng/mL
- Cmax [1, 3]: 0.0753 ± 0.0285 ng/mL
- AUC 0→t in product C group, increased to % compared to that in product A or B groups [1]: 131%
- P app in product C group, % compared to that in product A group (Caco-2 cells): 165%

Structure (SMILES): O=c1c(O[C@@H]2O[C@H](CO)[C@H](O)[C@H](O)[C@H]2O)c(-c2ccc(O)c(O)c2)oc2cc(O)cc(O)c12 [Hyperoside]
- AUC(0-inf) ([1]; oral product A): 9.89 ng·h/mL
- MRT ([1]; oral product A): 7.27 h
- Tmax ([1]; oral product A): 0.167 h
- half-life ([1]; oral product A): 6.83 ± 1.63 h
- AUC(0-inf) ([1]; oral product B): 10.4 ng·h/mL
- MRT ([1]; oral product B): 6.82 h
- half-life ([1]; oral product B): 6.68 ± 0.487 h
- AUC(0-inf) ([1]; oral product C): 24.6 ng·h/mL
- MRT ([1]; oral product C): 6.45 h
- Tmax ([1]; oral product C): 0.167 h
- half-life ([1]; oral product C): 7.05 ± 0.688 h
- Cmax [1, 4]: 5.25 ± 0.859 ng/mL
- Cmax [1, 2]: 9.68 ± 4.39 ng/mL
- Cmax [1, 3]: 22.1 ± 1.9 ng/mL
- bioavailability in product C group compared with that in product A group [1]: significantly higher
- bioavailability in product C group compared with that in product B group [1]: significantly higher
- P app in product C group, % compared to that in product A group (Caco-2 cells): 129%
- P app in product C group, % compared with that in product B group (Caco-2 cells): 195%

Structure (SMILES): O=c1c(O[C@@H]2O[C@H](CO)[C@@H](O)[C@H](O)[C@H]2O)c(-c2ccc(O)c(O)c2)oc2cc(O)cc(O)c12 [Isoquercitrin]
- AUC(0-inf) ([1]; oral product A): 2.63 ng·h/mL
- MRT ([1]; oral product A): 9.28 h
- Tmax ([1]; oral product A): 0.167 h
- half-life ([1]; oral product A): 7.27 ± 0.438 h
- AUC(0-inf) ([1]; oral product B): 3.25 ng·h/mL
- MRT ([1]; oral product B): 8.3 h
- Tmax ([1]; oral product B): 0.333 h
- half-life ([1]; oral product B): 7.85 ± 0.515 h
- AUC(0-inf) ([1]; oral product C): 5.51 ng·h/mL
- MRT ([1]; oral product C): 9.25 h
- Tmax ([1]; oral product C): 0.267 h
- half-life ([1]; oral product C): 7.58 ± 0.868 h
- Cmax [1, 4]: 0.504 ± 0.351 ng/mL
- Cmax [1, 2]: 0.619 ± 0.212 ng/mL
- Cmax [1, 3]: 1 ± 0.3 ng/mL
- bioavailability in product C group compared with that in product A group [1]: no significantly different
- bioavailability in product C group compared with that in product B group [1]: no significantly different
- P app in product C group, % compared to that in product A group (Caco-2 cells): 169%
- P app in product C group, % compared with that in product B group (Caco-2 cells): 234%

Structure (SMILES): COC(=O)C1=CO[C@@H](O[C@@H]2O[C@H](CO)[C@@H](O)[C@H](O)[C@H]2O)[C@@H]2[C@@H](C)[C@@H](O)C[C@H]12 [Loganin]
- AUC(0-t) [1]: 108 ng·h/mL
- AUC(0-inf) ([1]; oral product A): 92.9 ng·h/mL
- MRT ([1]; oral product A): 5.82 h
- Tmax ([1]; oral product A): 0.35 h
- half-life ([1]; oral product A): 2.07 ± 0.205 h
- AUC(0-inf) ([1]; oral product C): 140 ng·h/mL
- MRT ([1]; oral product C): 7.83 h
- Tmax ([1]; oral product C): 0.267 h
- half-life ([1]; oral product C): 7.33 ± 0.273 h
- Cmax [1, 4]: 28 ± 4.93 ng/mL
- Cmax [1, 3]: 54.7 ± 8.63 ng/mL
- AUC 0→t in product C group, increased to % compared to that in product A or B groups [1]: 121%
- P app in product C group, % compared to that in product A group (Caco-2 cells): 211%

Structure (SMILES): COc1ccc(C[C@H]2COC(=O)[C@@H]2Cc2ccc(O[C@@H]3O[C@H](CO)[C@@H](O)[C@H](O)[C@H]3O)c(OC)c2)cc1OC [arctiin]
- absorption into Caco-2 cells (Caco-2 cells): might not be absorbed well

Structure (SMILES): C[C@@H]1O[C@@H](O[C@H]2[C@H](O[C@H]3CC[C@@]4(C)[C@@H](CC[C@]5(C)[C@@H]4CC=C4[C@@H]6CC(C)(C)CC[C@]6(C(=O)O[C@@H]6O[C@H](CO[C@@H]7O[C@H](CO)[C@@H](O)[C@H](O)[C@H]7O)[C@@H](O)[C@H](O)[C@H]6O)CC[C@]45C)[C@]3(C)CO)OC[C@H](O)[C@@H]2O)[C@H](O)[C@H](O)[C@H]1O [dipsacoside B]
- absorption into Caco-2 cells (Caco-2 cells): might not be absorbed well
